# Laboratory results as given in patent US20230087342A1, “AZEPANE DERIVATIVE” (Nippon Chemiphar Co., Ltd., priority 2019, published 2023).
# Molecular target: T1, human κ opioid receptors (Homo sapiens, UniProt P41145)
# T1 construct: host or cells: CHO cells
# Assay: Opioid receptor function test (Lance Ultra cAMP kit, agonist activity)
# Type: cell-based
# Conditions: CHO cells expressing human κ opioid receptors, 10 μM forskolin, 30 minutes
# Procedure: Opioid Receptor Function Test
# The function activity of the compound of the present invention on κ opioid receptors was examined.
# Method: Using a Lance Ultra cAMP kit (Perkin Elmer), the examination was performed according to a predetermined method. In evaluation of agonist activity, CHO cells expressing human κ opioid receptors (Catalog No. CT6606, accession No. NM_000912) and a test compound were reacted in an assay buffer (1×HSS, 5 mM HEPES, pH 7.4, 0.5 mM IBMX (isobutylmethyixanthine), 0.1% SA) in the presence of 10 μM forskolin for 30 minutes. Subsequently, a cAMP detection reagent in the kit was added. One hour later, time-resolved fluorescence measurement was performed using an EnVision plate reader (Perkin Elmer). The evaluation of the test compound was performed in a concentration range of 10^−14 to 10^−7 M for the κ opioid receptor function test.
# T1 sequence (P41145 whole entry): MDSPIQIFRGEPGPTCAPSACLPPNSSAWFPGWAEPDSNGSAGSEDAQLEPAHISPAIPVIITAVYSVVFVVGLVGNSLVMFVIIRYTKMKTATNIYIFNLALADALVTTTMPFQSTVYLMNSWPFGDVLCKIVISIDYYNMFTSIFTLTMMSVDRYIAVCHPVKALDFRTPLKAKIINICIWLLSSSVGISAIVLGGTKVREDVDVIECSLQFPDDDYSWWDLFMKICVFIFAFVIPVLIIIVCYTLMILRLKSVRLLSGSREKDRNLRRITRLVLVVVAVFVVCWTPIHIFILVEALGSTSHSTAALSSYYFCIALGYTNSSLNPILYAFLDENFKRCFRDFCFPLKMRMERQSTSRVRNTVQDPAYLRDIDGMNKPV
compound,measurement,value
"O=C(Cn1nccc1O)N1CC[C@]23CCN(CC4CC4)[C@H](Cc4ccc(O)cc42)[C@]3(O)CC1 [Example 214, 1-((5aS,6R,11bR)-14-(cyclopropylmethyl)-5a,10-dihydroxy-1,2,5,5a,6,7-hexahydro-6,11b-(epiminoethano)naphtho[1,2-d]azepin-3(4H)-yl)-2-(5-hydroxy-1H-pyrazol-1-yl)ethan-1-one]",EC50,0.13 nM
"O=C(CCc1ccccn1)N1CC[C@]23CCN(CC4CC4)[C@H](Cc4ccc(O)cc42)[C@]3(O)CC1 [Example 190, 1-((5aS,6R,11bR)-14-(cyclopropylmethyl)-5a,10-dihydroxy-1,2,5,5a,6,7-hexahydro-6,11b-(epiminoethano)naphtho[1,2-d]azepin-3(4H)-yl)-3-(pyridin-2-yl)propan-1-one]",EC50,0.32 nM
"O=C(CCc1nccs1)N1CC[C@]23CCN(CC4CC4)[C@H](Cc4ccc(O)cc42)[C@]3(O)CC1 [Example 210, 1-((5aS,6R,11bR)-14-(cyclopropylmethyl)-5a,10-dihydroxy-1,2,5,5a,6,7-hexahydro-6,11b-(epiminoethano)naphtho[1,2-d]azepin-3(4H)-yl)-3-(thiazol-2-yl)propan-1-one]",EC50,0.72 nM
"Oc1ccc2c(c1)[C@@]13CCN(CCc4ncccn4)CC[C@@]1(O)[C@@H](C2)N(CC1CC1)CC3 [Example 83, (5aS,6R,11bS)-14-(cyclopropylmethyl)-3-(2-(pyrimidin-2-yl)ethyl)-2,3,4,5,6,7-hexahydro-6,11b-(epiminoethano)naphtho[1,2-d]azepine-5a,10(1H)-diol]",EC50,0.37 nM
"C[Si]1(C)CCN(CCN2CC[C@]34CCN(CC5CC5)[C@H](Cc5ccc(O)cc53)[C@]4(O)CC2)CC1 [Example 133, (5aS,6R,11bS)-14-(cyclopropylmethyl)-3-(2-(4,4-dimethyl-1,4-azasilinan-1-yl)ethyl)-2,3,4,5,6,7-hexahydro-6,11b-(epiminoethano)naphtho[1,2-d]azepine-5a,10(1H)-diol]",EC50,0.033 nM
"O=C(Cc1cn2ccccc2n1)N1CC[C@]23CCN(CC4CC4)[C@H](Cc4ccc(O)cc42)[C@]3(O)CC1 [Example 115, 1-((5aS,6R,11bR)-14-(cyclopropylmethyl)-5a,10-dihydroxy-1,2,5,5a,6,7-hexahydro-6,11b-(epiminoethano)naphtho[1,2-d]azepin-3(4H)-yl)-2-(imidazo[1,2-a]pyridin-2-yl)ethan-1-one]",EC50,0.15 nM
"Oc1ccc2c(c1)[C@@]13CCN(CCn4cc(C5CC5)cn4)CC[C@@]1(O)[C@@H](C2)N(CC1CC1)CC3 [Example 183, (5aS,6R,11bS)-3-(2-(4-cyclopropyl-1H-pyrazol-1-yl)ethyl)-14-(cyclopropylmethyl)-2,3,4,5,6,7-hexahydro-6,11b-(epiminoethano)naphtho[1,2-d]azepine-5a,10(1H)-diol]",EC50,0.03 nM
"Cc1cnn(CCN2CC[C@]34CCN(CC5CC5(F)F)[C@H](Cc5ccc(O)cc53)[C@]4(O)CC2)c1 (stereo partly drawn) [Example 218, (5aS,6R,11bS)-14-((2,2-difluorocyclopropyl)methyl)-3-(2-(4-methyl-1H-pyrazol-1-yl)ethyl)-2,3,4,5,6,7-hexahydro-6,11b-(epiminoethano)naphtho[1,2-d]azepine-5a,10(1H)-diol]",EC50,0.16 nM
"O=C(Cn1cc(C(F)(F)F)cn1)N1CC[C@]23CCN(CC4CC4)[C@H](Cc4ccc(O)cc42)[C@]3(O)CC1 [Example 143, 1-((5aS,6R,11bR)-14-(cyclopropylmethyl)-5a,10-dihydroxy-1,2,5,5a,6,7-hexahydro-6,11b-(epiminoethano)naphtho[1,2-d]azepin-3(4H)-yl)-2-(4-(trifluoromethyl)-1H-pyrazol-1-yl)ethan-1-one]",EC50,0.033 nM
"Cc1cnn(CCN2CC[C@]34CCN(CC5CC5)[C@H](Cc5ccc(O)cc53)[C@]4(O)CC2(C)C)c1 [Example 270, (5aS,6R,11bR)-14-(cyclopropylmethyl)-4,4-dimethyl-3-(2-(4-methyl-1H-pyrazol-1-yl)ethyl)-2,3,4,5,6,7-hexahydro-6,11b-(epiminoethano)naphtho[1,2-d]azepine-5a,10(1H)-diol]",EC50,0.052 nM
"Cc1ccnn1CCN1CC[C@]23CCN(CC4CC4)[C@H](Cc4ccc(O)cc42)[C@]3(O)CC1 [Example 52, (5aS,6R,11bS)-14-(cyclopropylmethyl)-3-(2-(5-methyl-1H-pyrazol-1-yl)ethyl)-2,3,4,5,6,7-hexahydro-6,11b-(epiminoethano)naphtho[1,2-d]azepine-5a,10(1H)-diol]",EC50,0.15 nM
"CC1(C)C[C@@]2(O)[C@H]3Cc4ccc(O)cc4[C@@]2(CCN3CC2CC2)CCN1C(=O)Cc1ccccn1 [Example 343, 1-((5aS,6R,11bR)-14-(cyclopropylmethyl)-5a,10-dihydroxy-4,4-dimethyl-1,2,5,5a,6,7-hexahydro-6,11b-(epiminoethano)naphtho[1,2-d]azepin-3(4H)-yl)-2-(pyridin-2-yl)ethan-1-one]",EC50,0.56 nM
"Cc1cc2c(cc1O)[C@@]13CCN(C(=O)CN4CC[C@@H](C)C4)CC[C@@]1(O)[C@@H](C2)N(CC1CC1)CC3 [Example 336, 1-((5aS,6R,11bR)-14-(cyclopropylmethyl)-5a,10-dihydroxy-9-methyl-1,2,5,5a,6,7-hexahydro-6,11b-(epiminoethano)naphtho[1,2-d]azepin-3(4H)-yl)-2-((R)-3-methylpyrrolidin-1-yl)ethan-1-one]",EC50,0.18 nM
"Oc1ccc2c(c1)[C@@]13CCN(CCN4CCC(F)(F)C4)CC[C@@]1(O)[C@@H](C2)N(CC1CC1)CC3 [Example 182, (5aS,6R,11bS)-14-(cyclopropylmethyl)-3-(2-(3,3-difluoropyrrolidin-1-yl)ethyl)-2,3,4,5,6,7-hexahydro-6,11b-(epiminoethano)naphtho[1,2-d]azepine-5a,10(1H)-diol]",EC50,0.22 nM
"NC(=O)c1ccc2c(c1)[C@@]13CCN(C(=O)CCn4cc(C(F)(F)F)cn4)CC[C@@]1(O)[C@@H](C2)N(CC1CC1)CC3 [Example 264, (5aS,6R,11bR)-14-(cyclopropylmethyl)-5a-hydroxy-3-(3-(4-(trifluoromethyl)-1H-pyrazol-1-yl)propanoyl)-1,2,3,4,5,5a,6,7-octahydro-6,11b-(epiminoethano)naphtho[1,2-d]azepine-10-carboxamide]",EC50,0.29 nM
"Cc1cnn(C[C@@H](CO)N2CC[C@]34CCN(CC5CC5)[C@H](Cc5ccc(O)cc53)[C@]4(O)CC2)c1 [Example 234, (5aS,6R,11bS)-14-(cyclopropylmethyl)-3-((S)-1-hydroxy-3-(4-methyl-1H-pyrazol-1-yl)propan-2-yl)-2,3,4,5,6,7-hexahydro-6,11b-(epiminoethano)naphtho[1,2-d]azepine-5a,10(1H)-diol]",EC50,0.087 nM
"O=C(CN1CCC(F)(F)C1)N1CC[C@]23CCN(CC4CC4)[C@H](Cc4ccc(O)cc42)[C@]3(O)CC1 [Example 181, 1-((5aS,6R,11bR)-14-(cyclopropylmethyl)-5a,10-dihydroxy-1,2,5,5a,6,7-hexahydro-6,11b-(epiminoethano)naphtho[1,2-d]azepin-3(4H)-yl)-2-(3,3-difluoropyrrolidin-1-yl)ethan-1-one]",EC50,0.32 nM
"Oc1ccc2c(c1)[C@@]13CCN(CCc4cc[nH]n4)CC[C@@]1(O)[C@@H](C2)N(CC1CC1)CC3 [Example 27, (5aS,6R,11bS)-3-(2-(1H-pyrazol-3-yl)ethyl)-14-(cyclopropylmethyl)-2,3,4,5,6,7-hexahydro-6,11b-(epiminoethano)naphtho[1,2-d]azepine-5a,10(1H)-diol]",EC50,0.13 nM
"Oc1ccc2c(c1)[C@@]13CCN(CCn4cc(F)cn4)CC[C@@]1(O)[C@@H](C2)N(CC1CC1)CC3 [Example 184, (5aS,6R,11bS)-14-(cyclopropylmethyl)-3-(2-(4-fluoro-1H-pyrazol-1-yl)ethyl)-2,3,4,5,6,7-hexahydro-6,11b-(epiminoethano)naphtho[1,2-d]azepine-5a,10(1H)-diol]",EC50,0.095 nM
"Cc1cnn(C[C@H](CO)N2CC[C@]34CCN(CC5CC5)[C@H](Cc5ccc(O)cc53)[C@]4(O)CC2)c1 [Example 232, (5aS,6R,11bS)-14-(cyclopropylmethyl)-3-((R)-1-hydroxy-3-(4-methyl-1H-pyrazol-1-yl)propan-2-yl)-2,3,4,5,6,7-hexahydro-6,11b-(epiminoethano)naphtho[1,2-d]azepine-5a,10(1H)-diol]",EC50,0.17 nM
"Oc1ccc2c(c1)[C@@]13CCN(CCn4ccc(C(F)(F)F)n4)CC[C@@]1(O)[C@@H](C2)N(CC1CC1)CC3 [Example 54, (5aS,6R,11bS)-14-(cyclopropylmethyl)-3-(2-(3-(trifluoromethyl)-1H-pyrazol-1-yl)ethyl)-2,3,4,5,6,7-hexahydro-6,11b-(epiminoethano)naphtho[1,2-d]azepine-5a,10(1H)-diol]",EC50,0.36 nM
"Oc1ccc2c(c1)[C@@]13CCN(CCc4cnccn4)CC[C@@]1(O)[C@@H](C2)N(CC1CC1)CC3 [Example 84, (5aS,6R,11bS)-14-(cyclopropylmethyl)-3-(2-(pyrazin-2-yl)ethyl)-2,3,4,5,6,7-hexahydro-6,11b-(epiminoethano)naphtho[1,2-d]azepine-5a,10(1H)-diol]",EC50,0.47 nM
"Cc1cc2c(cc1O)[C@@]13CCN(C(=O)Cn4cc(C(F)(F)F)cn4)CC[C@@]1(O)[C@@H](C2)N(CC1CC1)CC3 [Example 329, 1-((5aS,6R,11bR)-14-(cyclopropylmethyl)-5a,10-dihydroxy-9-methyl-1,2,5,5a,6,7-hexahydro-6,11b-(epiminoethano)naphtho[1,2-d]azepin-3(4H)-yl)-2-(4-(trifluoromethyl)-1H-pyrazol-1-yl)ethan-1-one]",EC50,0.084 nM
